From patent US20260201008A1, “SECRETIN-DERIVED GLP1R SELECTIVE AGONISTS” (GUBRA A/S, priority 2023, published 2026)
Where two headings read alike, the source gives them in different places. Numbered stars: 1 amine (or outer) side, 2 acyl side, 3 side chain; on linkers, the order of the positions; unused ones are H or OH. Square brackets hold non-standard residues; d marks the D form. Side chains are listed from the residue outwards. Peptide text beside a SMILES is read from it. * marks the point of attachment. C20 diacid = O=C(O)CCCCCCCCCCCCCCCCCCC(=O)*; γGlu = O=C(O)[C@H](CCC(=O)[*:2])N[*:1]; AEEA = NCCOCCOCC(=O)O; Aib = CC(C)(N)C(=O)O

How the values were obtained:
GLP1R = GLP1R (Homo sapiens, UniProt P43220); test: hGLP1R potency, cAMP accumulation in CHO-K1 cells stably overexpressing hGLP1R; assay type: cell-based; parameters: host or cells: CHO-K1; conditions: for Selectivity: SCTR EC50/GLP1R EC50 ratio; for SCTR EC50/GLP1R EC50 ratio: cAMP accumulation in CHO-K1 cells
GLP1R, sequence (P43220 24-463): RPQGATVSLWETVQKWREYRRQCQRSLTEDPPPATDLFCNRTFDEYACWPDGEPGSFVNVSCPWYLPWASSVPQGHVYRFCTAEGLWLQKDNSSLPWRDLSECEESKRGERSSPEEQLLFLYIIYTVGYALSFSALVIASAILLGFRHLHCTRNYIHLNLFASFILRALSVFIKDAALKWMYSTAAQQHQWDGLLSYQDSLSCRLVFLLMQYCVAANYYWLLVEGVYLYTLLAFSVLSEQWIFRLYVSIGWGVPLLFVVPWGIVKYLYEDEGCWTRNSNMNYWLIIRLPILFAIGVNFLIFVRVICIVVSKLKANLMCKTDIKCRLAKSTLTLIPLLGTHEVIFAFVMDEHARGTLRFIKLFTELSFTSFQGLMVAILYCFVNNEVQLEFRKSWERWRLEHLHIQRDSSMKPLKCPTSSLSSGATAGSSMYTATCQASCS
How it was run: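 TR-FRET cAMP read-out, one hour after reagent addition, following 30 min compound exposure at RT in DPBS/0.05% casein/0.5 mM IBMX. Crude peptides: 5 points, 10-fold steps, n=1. Purified peptides: 11 points, 3-fold steps, n=2. EC50 fitted with a variable-slope sigmoid.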

[1] = Fibril formation of crude library peptides (Thioflavin T); assay type: physicochemical; parameters: key: average ThT fluorescence emission at 480 nm (ex 450 nm), raw units; conditions: Physical stability of peptides
How it was run: (§1)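 Fibril formation is scored as average ThT fluorescence from duplicate samples monitored for 72 h at 40° C with shaking stress. Turbidity is the absorbance at 600 nm taken before heating. Peptide concentration was 267 μM at pH 4.0 or pH 7.0.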

SCTR = SCTR (Homo sapiens, UniProt P47872); test: hSCTR potency, cAMP accumulation in CHO-K1 cells stably overexpressing hSCTR; assay type: cell-based; parameters: alternatively Euroscreen ES-712-AF; FAST-0161L; host or cells: CHO-K1
SCTR, sequence (P47872 23-440): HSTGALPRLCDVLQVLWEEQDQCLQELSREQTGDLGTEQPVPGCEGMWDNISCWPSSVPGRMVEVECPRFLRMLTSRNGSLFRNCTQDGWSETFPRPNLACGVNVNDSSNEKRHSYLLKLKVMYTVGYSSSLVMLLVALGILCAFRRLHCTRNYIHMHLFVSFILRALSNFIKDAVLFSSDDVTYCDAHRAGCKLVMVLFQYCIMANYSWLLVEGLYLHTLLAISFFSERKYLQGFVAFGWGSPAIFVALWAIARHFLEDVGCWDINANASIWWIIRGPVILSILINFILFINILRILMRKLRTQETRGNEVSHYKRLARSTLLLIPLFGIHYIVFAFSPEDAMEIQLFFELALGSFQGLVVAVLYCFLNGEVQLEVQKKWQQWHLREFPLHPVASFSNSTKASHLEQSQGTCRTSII
How it was run: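 CHO-K1/hSCTR cells; DPBS + 0.05% casein + 0.5 mM IBMX; 30 min RT stimulation; cAMP by TR-FRET read at 1 h. Crude peptides: 5-point 10-fold dilutions, n=1. Purified: 11-point 3-fold dilutions, n=2. EC50 via variable-slope fit.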

[2] = Turbidity of crude library peptides (absorbance at 600 nm); assay type: physicochemical; conditions: Physical stability of peptides
How it was run: as §1

[3] = cAMP accumulation, CHO-K1 cells overexpressing hGLP1R, read-out: pEC50 hGLPR1 (converted)
[4] = cAMP accumulation, CHO-K1 cells overexpressing hSCTR, read-out: pEC50 hSCTR (converted)
[5] = cAMP accumulation, CHO-K1 cells overexpressing hGLP1R, read-out: hGLP1R pEC50 (converted)
[6] = selectivity for hGLP1R over hSCTR
[7] = cAMP accumulation, CHO-K1 cells overexpressing hSCTR, read-out: hSCTR pEC50 (converted)

Row | Selectivity (GLP1R) | EC50 (GLP1R; [3]) [nM] | Fibril formation [1] | EC50 (SCTR; [4]) [nM] | Turbidity (pH 7) [2] | EC50 (GLP1R; [5]) [nM] | SCTR EC50/GLP1R EC50 ratio (GLP1R; [6]) | EC50 (SCTR; [7]) [nM] | EC50 (GLP1R; cAMP accumulation, CHO-K1 cells stably overexpressing hGLP1R, read-out: hGLP1R potency (pEC50) (converted)) [nM] | SCTR EC50/GLP1R EC50 ratio (GLP1R; selectivity ratio, hSCTR vs hGLP1R) | EC50 (SCTR; cAMP accumulation, CHO-K1 cells stably overexpressing hSCTR, read-out: hSCTR potency (pEC50) (converted)) [nM] | Structure (SMILES) | EC50 (GLP1R) [nM] | EC50 (SCTR) [nM]
1 | 22019 | 0.02 | 33108 | 398 | 0.10 | – | – | – | – | – | – | CC(C)C[C@H](NC(=O)[C@H](Cc1ccccc1)NC(=O)[C@H](CCCNC(=N)N)NC(=O)[C@H](CCC(N)=O)NC(=O)[C@H](CO)NC(=O)[C@H](C)NC(=O)[C@H](C)NC(=O)[C@@H](NC(=O)[C@H](CCC(=O)O)NC(=O)[C@H](CCCCNC(=O)COCCOCCNC(=O)COCCOCCNC(=O)CC[C@H](NC(=O)CCCCCCCCCCCCCCCCCCC(=O)O)C(=O)O)NC(=O)[C@H](CC(C)C)NC(=O)[C@@H](NC(=O)[C@H](CO)NC(=O)[C@@H](NC(=O)[C@H](CC(=O)O)NC(=O)[C@H](CO)NC(=O)[C@@H](NC(=O)[C@H](Cc1ccccc1)NC(=O)[C@@H](NC(=O)CNC(=O)[C@H](CCC(=O)O)NC(=O)C(C)(C)NC(=O)[C@@H](N)Cc1c[nH]cn1)[C@@H](C)O)[C@@H](C)O)C(C)C)[C@@H](C)O)[C@@H](C)O)C(=O)N[C@@H](CCC(=O)O)C(=O)N[C@@H](Cc1c[nH]cn1)C(=O)N[C@@H](CC(C)C)C(=O)N[C@H](C(N)=O)C(C)C [compound 20] (H-H[Aib]EGTFTSDVSTLK([AEEA-AEEA-γGlu-C20 diacid])ETAASQRFLEHLV-NH2) | – | –
2 | – | – | 7811 | – | 0.08 | 0.0398 | 39811 | 1580 | – | – | – | CC(C)C[C@H](NC(=O)[C@H](Cc1ccccc1)NC(=O)[C@H](CCCNC(=N)N)NC(=O)[C@H](CCC(N)=O)NC(=O)[C@H](CO)NC(=O)[C@H](C)NC(=O)[C@H](C)NC(=O)[C@H](CCC(=O)O)NC(=O)[C@H](CCC(=O)O)NC(=O)[C@H](CCCCNC(=O)COCCOCCNC(=O)COCCOCCNC(=O)CC[C@H](NC(=O)CCCCCCCCCCCCCCCCCCC(=O)O)C(=O)O)NC(=O)[C@H](CC(C)C)NC(=O)[C@H](CCC(=O)O)NC(=O)[C@H](CO)NC(=O)[C@@H](NC(=O)[C@H](CC(=O)O)NC(=O)[C@H](CO)NC(=O)[C@@H](NC(=O)[C@H](Cc1ccccc1)NC(=O)[C@@H](NC(=O)CNC(=O)[C@H](CCC(=O)O)NC(=O)C(C)(C)NC(=O)[C@@H](N)Cc1c[nH]cn1)[C@@H](C)O)[C@@H](C)O)C(C)C)C(=O)N[C@@H](CCC(=O)O)C(=O)N[C@@H](Cc1c[nH]cn1)C(=O)N[C@@H](CC(C)C)C(=O)N[C@H](C(N)=O)C(C)C [compound 87] (H-H[Aib]EGTFTSDVSELK([AEEA-AEEA-γGlu-C20 diacid])EEAASQRFLEHLV-NH2) | – | –
3 | – | – | 29535 | – | 0.54 | – | – | – | 0.126 | 383 | 50.1 | CC[C@H](C)[C@H](NC(=O)[C@H](Cc1ccccc1)NC(=O)[C@H](CCCNC(=N)N)NC(=O)[C@H](CCC(N)=O)NC(=O)[C@H](CC(C)C)NC(=O)[C@H](C)NC(=O)[C@H](C)NC(=O)CNC(=O)[C@H](CCC(=O)O)NC(=O)[C@H](CC(C)C)NC(=O)[C@H](CC(C)C)NC(=O)C(C)(C)NC(=O)[C@H](CO)NC(=O)[C@H](Cc1c[nH]c2ccccc12)NC(=O)[C@H](CC(=O)O)NC(=O)[C@H](CO)NC(=O)[C@@H](NC(=O)[C@H](Cc1ccccc1)NC(=O)[C@@H](NC(=O)CNC(=O)[C@H](CCC(=O)O)NC(=O)C(C)(C)NC(=O)[C@@H](N)Cc1c[nH]cn1)[C@@H](C)O)[C@@H](C)O)C(=O)N[C@@H](CCC(N)=O)C(=O)N[C@@H](Cc1c[nH]c2ccccc12)C(=O)N[C@@H](CC(C)C)C(=O)N[C@H](C(N)=O)C(C)C [compound 192] (H-H[Aib]EGTFTSDWS[Aib]LLEGAALQRFIQWLV-NH2) | – | –
4 | 13611 | 0.0631 | 231646 | 1000 | 0.08 | – | – | – | – | – | – | CC(C)C[C@H](NC(=O)[C@H](Cc1ccccc1)NC(=O)[C@H](CCCNC(=N)N)NC(=O)[C@H](CCC(N)=O)NC(=O)[C@H](CO)NC(=O)[C@H](C)NC(=O)[C@H](C)NC(=O)[C@@H](NC(=O)[C@H](CCC(=O)O)NC(=O)[C@H](CCCCNC(=O)COCCOCCNC(=O)COCCOCCNC(=O)CC[C@H](NC(=O)CCCCCCCCCCCCCCCCCCC(=O)O)C(=O)O)NC(=O)[C@H](CC(C)C)NC(=O)[C@H](CCCNC(=N)N)NC(=O)[C@H](CO)NC(=O)[C@@H](NC(=O)[C@H](CC(=O)O)NC(=O)[C@H](CO)NC(=O)[C@@H](NC(=O)[C@H](Cc1ccccc1)NC(=O)[C@@H](NC(=O)CNC(=O)[C@H](CCC(=O)O)NC(=O)C(C)(C)NC(=O)[C@@H](N)Cc1c[nH]cn1)[C@@H](C)O)[C@@H](C)O)C(C)C)[C@@H](C)O)C(=O)N[C@@H](CCC(=O)O)C(=O)N[C@@H](Cc1c[nH]cn1)C(=O)N[C@@H](CC(C)C)C(=O)N[C@H](C(N)=O)C(C)C [compound 71] (H-H[Aib]EGTFTSDVSRLK([AEEA-AEEA-γGlu-C20 diacid])ETAASQRFLEHLV-NH2) | – | –

The next lines start with the compound.

Row | Structure (SMILES) | Selectivity (GLP1R) | EC50 (GLP1R; [3]) [nM] | Fibril formation [1] | EC50 (SCTR; [4]) [nM] | Turbidity (pH 7) [2] | EC50 (GLP1R; [5]) [nM] | SCTR EC50/GLP1R EC50 ratio (GLP1R; [6]) | EC50 (SCTR; [7]) [nM] | EC50 (GLP1R; cAMP accumulation, CHO-K1 cells stably overexpressing hGLP1R, read-out: hGLP1R potency (pEC50) (converted)) [nM] | SCTR EC50/GLP1R EC50 ratio (GLP1R; selectivity ratio, hSCTR vs hGLP1R) | EC50 (SCTR; cAMP accumulation, CHO-K1 cells stably overexpressing hSCTR, read-out: hSCTR potency (pEC50) (converted)) [nM] | EC50 (GLP1R) [nM] | EC50 (SCTR) [nM]
5 | CC(C)C[C@H](NC(=O)[C@H](Cc1ccccc1)NC(=O)[C@H](CCCNC(=N)N)NC(=O)[C@H](CCC(N)=O)NC(=O)[C@@H](NC(=O)[C@H](C)NC(=O)[C@H](C)NC(=O)[C@@H](NC(=O)[C@H](CCC(=O)O)NC(=O)[C@H](CCCCNC(=O)COCCOCCNC(=O)COCCOCCNC(=O)CC[C@H](NC(=O)CCCCCCCCCCCCCCCCCCC(=O)O)C(=O)O)NC(=O)[C@H](CC(C)C)NC(=O)[C@@H](NC(=O)[C@H](CO)NC(=O)[C@@H](NC(=O)[C@H](CC(=O)O)NC(=O)[C@H](CO)NC(=O)[C@@H](NC(=O)[C@H](Cc1ccccc1)NC(=O)[C@@H](NC(=O)CNC(=O)[C@H](CCC(=O)O)NC(=O)C(C)(C)NC(=O)[C@@H](N)Cc1c[nH]cn1)[C@@H](C)O)[C@@H](C)O)C(C)C)[C@@H](C)O)[C@@H](C)O)[C@@H](C)O)C(=O)N[C@@H](CCC(=O)O)C(=O)N[C@@H](Cc1c[nH]cn1)C(=O)N[C@@H](CC(C)C)C(=O)N[C@H](C(N)=O)C(C)C [compound 93] (H-H[Aib]EGTFTSDVSTLK([AEEA-AEEA-γGlu-C20 diacid])ETAATQRFLEHLV-NH2) | – | – | 6728 | – | 0.08 | – | 36771 | – | – | – | – | 0.01 | 316
6 | CC(C)C[C@H](NC(=O)[C@H](Cc1ccccc1)NC(=O)[C@H](CCCNC(=N)N)NC(=O)[C@H](CCC(N)=O)NC(=O)[C@H](CO)NC(=O)[C@H](C)NC(=O)[C@H](C)NC(=O)[C@H](Cc1ccccc1)NC(=O)[C@H](CCC(=O)O)NC(=O)[C@H](CCCCNC(=O)COCCOCCNC(=O)COCCOCCNC(=O)CC[C@H](NC(=O)CCCCCCCCCCCCCCCCCCC(=O)O)C(=O)O)NC(=O)[C@H](CC(C)C)NC(=O)[C@H](Cc1ccccc1)NC(=O)[C@H](CO)NC(=O)[C@@H](NC(=O)[C@H](CC(=O)O)NC(=O)[C@H](CO)NC(=O)[C@@H](NC(=O)[C@H](Cc1ccccc1)NC(=O)[C@@H](NC(=O)CNC(=O)[C@H](CCC(=O)O)NC(=O)C(C)(C)NC(=O)[C@@H](N)Cc1c[nH]cn1)[C@@H](C)O)[C@@H](C)O)C(C)C)C(=O)N[C@@H](CCC(=O)O)C(=O)N[C@@H](Cc1c[nH]cn1)C(=O)N[C@@H](CC(C)C)C(=O)N[C@H](C(N)=O)C(C)C [compound 91] (H-H[Aib]EGTFTSDVSFLK([AEEA-AEEA-γGlu-C20 diacid])EFAASQRFLEHLV-NH2) | – | – | 260000 | – | 0.42 | 0.316 | 101438 | 31600 | – | – | – | – | –
7 | CC[C@H](C)[C@H](NC(=O)[C@H](Cc1ccccc1)NC(=O)[C@H](CCCNC(=N)N)NC(=O)[C@H](CCC(N)=O)NC(=O)[C@H](CC(C)C)NC(=O)[C@H](C)NC(=O)[C@H](C)NC(=O)CNC(=O)[C@H](CCC(=O)O)NC(=O)[C@H](CC(C)C)NC(=O)[C@H](CC(C)C)NC(=O)C(C)(C)NC(=O)[C@H](CO)NC(=O)C(C)(C)NC(=O)[C@H](CC(=O)O)NC(=O)[C@H](CO)NC(=O)[C@@H](NC(=O)[C@H](Cc1ccccc1)NC(=O)[C@@H](NC(=O)CNC(=O)[C@H](CCC(=O)O)NC(=O)C(C)(C)NC(=O)[C@@H](N)Cc1c[nH]cn1)[C@@H](C)O)[C@@H](C)O)C(=O)N[C@@H](CCC(N)=O)C(=O)N[C@@H](Cc1c[nH]c2ccccc12)C(=O)N[C@@H](CC(C)C)C(=O)N[C@H](C(N)=O)C(C)C [compound 107] (H-H[Aib]EGTFTSD[Aib]S[Aib]LLEGAALQRFIQWLV-NH2) | – | – | 3284 | – | 0.15 | 0.158 | 6863 | 1000 | – | – | – | – | –
